Structures are written as SMILES.

In experiment [1] the target is JAK1 (recombinant purified GST-tagged catalytic domain) (Homo sapiens (Human), UniProt P23458). Kind of experiment: biochemical.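 Further: biochemical assay with HTRF read-out.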
For experiment [2], the target named is JAK2 (recombinant purified GST-tagged catalytic domain) (Homo sapiens (Human), UniProt O60674). Kind of experiment: biochemical.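 Further: biochemical JAK kinase assay with HTRF detection.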
Chain of JAK2 (recombinant purified GST-tagged catalytic domain) (O60674 849-1124): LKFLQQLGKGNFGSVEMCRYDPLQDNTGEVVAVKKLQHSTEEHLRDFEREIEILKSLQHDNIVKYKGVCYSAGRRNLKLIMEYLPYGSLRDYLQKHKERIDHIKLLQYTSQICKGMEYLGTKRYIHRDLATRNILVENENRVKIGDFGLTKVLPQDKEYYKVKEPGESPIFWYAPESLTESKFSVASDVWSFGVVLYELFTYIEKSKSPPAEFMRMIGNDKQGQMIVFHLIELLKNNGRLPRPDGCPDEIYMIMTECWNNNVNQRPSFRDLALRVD

Chain of JAK1 (recombinant purified GST-tagged catalytic domain) (P23458 875-1153): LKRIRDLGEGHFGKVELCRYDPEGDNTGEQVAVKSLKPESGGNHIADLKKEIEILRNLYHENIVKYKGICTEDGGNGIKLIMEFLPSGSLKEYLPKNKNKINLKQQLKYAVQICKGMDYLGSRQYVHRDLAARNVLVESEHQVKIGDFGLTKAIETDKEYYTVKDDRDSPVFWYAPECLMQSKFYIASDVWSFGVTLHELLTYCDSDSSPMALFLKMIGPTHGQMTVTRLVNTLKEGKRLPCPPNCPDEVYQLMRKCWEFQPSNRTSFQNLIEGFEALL

The term IC50 denotes the concentration at which inhibition is half-maximal. `N#C[C@@H]1C[C@H](C(=O)NCC(F)(F)F)CCC1n1cc(C(N)=O)c(Nc2ccc(Cl)cc2)n1` (single isomer, unassigned) [Example 35-10, 3-[(4-chlorophenyl)amino]-1-{(1R,2R,4R or 1S,2S,4S)-2-cyano-4-[(2,2,2-trifluoroethyl)carbamoyl]cyclohexyl}-1H-pyrazole-4-carboxamide]: the IC50 in experiment [1] was found to be 3 nM; in experiment [2], 38 nM.
As for `CN([C@H]1CC[C@H](n2cc(C(N)=O)c(Nc3ccc(Cl)cc3)n2)[C@@H](C#N)C1)S(C)(=O)=O` (racemic) [Example 38-6, 3-[(4-chlorophenyl)amino]-1-{(1S,2S,4R and 1R,2R,4S)-2-cyano-4-[methyl(methylsulfonyl)amino]cyclohexyl}-1H-pyrazole-4-carboxamide], the IC50 in experiment [1] turned out to be 1 nM; in experiment [2], 6 nM.
As for `N#Cc1ncc(Nc2nn([C@H]3CCCC[C@@H]3C#N)cc2C(N)=O)cc1F` (single isomer, unassigned) [Example 17-79, 1-[(1R,2R or 1S,2S)-2-cyanocyclohexyl]-3-[(6-cyano-5-fluoropyridin-3-yl)amino]-1H-pyrazole-4-carboxamide], the IC50 in experiment [1] turned out to be 7 nM; in experiment [2], 40 nM.
In the same order, the values of `N#C[C@@H]1C[C@@H](NCC2CCC2)CC[C@H]1n1cc(C(N)=O)c(Nc2ccc(C(F)(F)F)cc2)n1` (single isomer, unassigned) [Example 30-16, 1-{(1R,2R,4S or 1S,2S,4R)-2-cyano-4-[(cyclobutyl-methyl)amino]cyclohexyl}-3-{[4-(trifluoro-methyl)phenyl]amino}-1H-pyrazole-4-carboxamide] are 2 nM and 242 nM.
With `N#C[C@H]1C[C@H](N2CC(F)C2)CC[C@@H]1n1cc(C(N)=O)c(Nc2ccc(S(=O)(=O)C(F)(F)F)cc2)n1` (single isomer, unassigned) [Example 28-112, 1-[(1S,2S,4R or 1R,2R,4S)-2-cyano-4-(3-fluoroazetidin-1-yl)cyclohexyl]-3-({4-[(trifluoro-methyl)sulfonyl]phenyl}amino)-1H-pyrazole-4-carboxamide], the results for the IC50 in experiment [1] and in experiment [2] were 0.45 nM and 6 nM, respectively.
In the same order, the values of `N#C[C@H]1C[C@@H](N2CCC2)CC[C@@H]1n1cc(C(N)=O)c(Nc2ccccc2)n1` (single isomer, unassigned) [Example 28-4, 1-((1R,2R,4R or 1S,2S,4S)-4-(Azetidin-1-yl)-2-cyanocyclohexyl)-3-(phenylamino)-1H-pyrazole-4-carboxamide] are 0.75 nM and 39 nM.
In the same order, the values of `N#C[C@@H]1C[C@H](C(=O)NC2CC2)CC[C@H]1n1cc(C(N)=O)c(Nc2ccc(Cl)cc2)n1` (single isomer, unassigned) [Example 35-19, 3-[(4-chlorophenyl)amino]-1-[(1R,2R,4R or 1S,2S,4S)-2-cyano-4-(cyclopropylcarbamoyl)cyclohexyl]-1H-pyrazole-4-carboxamide] are 5 nM and 23 nM.
In the same order, the values of `N#C[C@H]1CC(N(C2CC2)C2CC2)CC[C@@H]1n1cc(C(N)=O)c(Nc2ccc(S(=O)(=O)C(F)(F)F)cc2)n1` (single isomer, unassigned) [Example 28-181, 1-[(1S,2S or 1R,2R)-2-cyano-4-(dicyclopropylamino)cyclohexyl]-3-({4-[(trifluoro-methyl)sulfonyl]phenyl}amino)-1H-pyrazole-4-carboxamide] are 1 nM and 16 nM.
On to `N#C[C@H]1CCCC[C@@H]1n1cc(C(N)=O)c(Nc2ccc(S(=O)(=O)C(F)(F)F)c(CO)c2)n1` (racemic) [Example 17-17, 1-[(1S,2S and 1R,2R)-2-cyanocyclohexyl]-3-({3-(hydroxymethyl)-4-[(trifluoromethyl)sulfonyl]phenyl}amino)-1H-pyrazole-4-carboxamide], for which the IC50 is 1 nM in experiment [1] and 5 nM in experiment [2].
Taken in the same sequence, the figures for `CC(C)(C)N[C@@H]1CC[C@H](n2cc(C(N)=O)c(Nc3ccc([C@H](O)C(F)(F)F)cc3)n2)[C@@H](C#N)C1` (single isomer, unassigned) [Example 28-52, 1-[(1S,2S,4R or 1R,2R,4S)-4-(tert-butylamino)-2-cyanocyclohexyl]-3-({4-[(1S or 1R)-2,2,2-trifluoro-1-hydroxyethyl]phenyl}amino)-1H-pyrazole-4-carboxamide] were 0.4 nM and 23 nM.
For the compound `N#C[C@H]1CCCC[C@@H]1n1cc(C(N)=O)c(Nc2ccc(S(=O)(=O)NC3CCCCC3)cc2)n1` (single isomer, unassigned) [Example 17-82, 1-[(1R,2R or 1S,2S)-2-cyanocyclohexyl]-3-{[4-(cyclohexylsulfamoyl)phenyl]amino}-1H-pyrazole-4-carboxamide], the values for the IC50 in experiment [1] and in experiment [2] were 0.5 nM and 1 nM, respectively.
Taken in the same sequence, the figures for `C[C@H](N[C@@H]1CC[C@H](n2cc(C(N)=O)c(Nc3ccc(C(F)(F)F)cc3)n2)[C@@H](C#N)C1)C1CC1` (single isomer, unassigned) [Example 28-190, 1-[(1S,2S,4R or 1R,2R,4S)-2-cyano-4-{[(1S)-1-cyclopropylethyl]amino}cyclo-hexyl]-3-{[4-(trifluoromethyl)phenyl]amino}-1H-pyrazole-4-carboxamide] were 2 nM and 270 nM.
In the case of `N#C[C@H]1C[C@H](OCC2CC2)CC[C@@H]1n1cc(C(N)=O)c(Nc2ccnc(F)c2)n1` (single isomer, unassigned) [Example 26-1, 1-[(1S,2S,4R or 1R,2R,4S)-2-cyano-4-(cyclopropylmethoxy)cyclohexyl]-3-[(2-fluoropyridin-4-yl)amino]-1H-pyrazole-4-carboxamide], the IC50 in experiment [1] amounted to 2 nM; in experiment [2], 9 nM.
In the same order, the values of `N#C[C@H]1C[C@@H](C(=O)N2CC3(COC3)C2)CC[C@@H]1n1cc(C(N)=O)c(Nc2ccc(Cl)cc2)n1` (single isomer, unassigned) [Example 35-37, 3-[(4-chlorophenyl)amino]-1-[(1S,2S,4S or 1R,2R,4R)-2-cyano-4-(2-oxa-6-azaspiro[3.3]hept-6-ylcarbonyl)cyclohexyl]-1H-pyrazole-4-carboxamide] are 43 nM and > 500 nM.
In the same order, the values of `N#C[C@H]1C[C@H](NC2(C(F)(F)F)CC2)CC[C@@H]1n1cc(C(N)=O)c(Nc2ccc(Cl)cc2)n1` (single isomer, unassigned) [Example 28-227, 3-[(4-chlorophenyl)amino]-1-[(1S,2S,4R or 1R,2R,4S)-2-cyano-4-{[1-(trifluoro-methyl)cyclopropyl]a-mino}cyclohexyl]-1H-pyrazole-4-carboxamide] are 27 nM and 186 nM.
Taken in the same sequence, the figures for `N#C[C@H]1CCCC[C@@H]1n1cc(C(N)=O)c(Nc2cnc3ccc(Cl)cc3c2)n1` (single isomer, unassigned) [Example 17-60, 3-[(6-chloroquinolin-3-yl)amino]-1-[(1S,2S or 1R,2R)-2-cyanocyclohexyl]-1H-pyrazole-4-carboxamide] were 6 nM and 23 nM.

Values taken from patent publication US8962608B2, “Cycloalkylnitrile pyrazole carboxamides as janus kinase inhibitors” (Merck Sharp & Dohme Corp., priority 2011, dated 2015).
